Measurements: PubChem BioAssay AID256 (DTP/NCI, 2004)
“And” between values parts separate entries of the source, which are not always exact repeats. Equal values may be shown once. Inconclusive results and toxic doses are left out. Rule for the calls: active = survival T/C of 150% or more; inactive = T/C below 125% in these data.

System: CD2F1 mice, L1210 leukemia ip, survival T/C
Experiment: NCI In Vivo Anticancer Drug Screen. Data for tumor model L1210 Leukemia (intraperitoneal) in CD2F1 (CDF1) mice
Settings: endpoint: mean survival time, higher = longer survival
Method in brief: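 Each value reflects a quotient of treated over vehicle control outcomes in mice with a transplanted tumor.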

[1] = dose: 100.0 mg/kg/injection, schedule: Q04DX002 (ip), vehicle: saline with Tween-80
[2] = dose: 200.0 mg/kg/injection, schedule: Q04DX002 (ip), vehicle: saline with Tween-80
[3] = dose: 50.0 mg/kg/injection, schedule: Q01DX009 (ip), vehicle: saline with Tween-80
[4] = dose: 100.0 mg/kg/injection, schedule: Q01DX009 (ip), vehicle: saline with Tween-80
[5] = dose: 200.0 mg/kg/injection, schedule: Q01DX009 (ip), vehicle: saline with Tween-80
[6] = dose: 100.0 mg/kg/injection, schedule: Q01DX001 (ip), vehicle: saline with Tween-80
[7] = dose: 200.0 mg/kg/injection, schedule: Q01DX001 (ip), vehicle: saline with Tween-80
[8] = dose: 400.0 mg/kg/injection, schedule: Q01DX001 (ip), vehicle: saline with Tween-80
[9] = dose: 400.0 mg/kg/injection, schedule: Q01DX009 (ip), vehicle: saline with Tween-80
[10] = dose: 50.0 mg/kg/injection, schedule: Q01DX001 (ip), vehicle: saline
[11] = dose: 100.0 mg/kg/injection, schedule: Q01DX001 (ip), vehicle: saline
[12] = dose: 200.0 mg/kg/injection, schedule: Q01DX001 (ip), vehicle: saline
[13] = dose: 50.0 mg/kg/injection, schedule: Q04DX002 (ip), vehicle: saline with Tween-80
[14] = dose: 100.0 mg/kg/injection, schedule: Q04DX003 (ip), vehicle: saline with Tween-80
[15] = dose: 200.0 mg/kg/injection, schedule: Q04DX003 (ip), vehicle: saline with Tween-80
[16] = dose: 400.0 mg/kg/injection, schedule: Q04DX003 (ip), vehicle: saline with Tween-80
[17] = dose: 25.0 mg/kg/injection, schedule: Q01DX009 (ip), vehicle: saline
[18] = dose: 50.0 mg/kg/injection, schedule: Q01DX009 (ip), vehicle: saline

Measured: T/C

COc1ccc(OCc2ccc(OC)c(OC)c2)cc1
inactive: [1] 91 % of control | [2] 87 % of control | dose: 400.0 mg/kg/injection, schedule: Q04DX002 (ip), vehicle: saline with Tween-80 91 % of control

C=C(C)CC(O)CCCCCC (configuration not stated)
inactive: [3] 98 % of control | [4] 110 % of control | [5] 107 % of control

CSc1nc(=O)[nH]c2c1c1c(N)ncnc1n2C1OC(CO)C(O)C1O (configuration not stated)
inactive: dose: 12.5 mg/kg/injection, schedule: Q01DX005 (ip), vehicle: distilled water + Tween-80 104 % of control | dose: 25.0 mg/kg/injection, schedule: Q01DX005 (ip), vehicle: distilled water + Tween-80 97 % of control | dose: 50.0 mg/kg/injection, schedule: Q01DX005 (ip), vehicle: distilled water + Tween-80 104 % of control | dose: 100.0 mg/kg/injection, schedule: Q01DX005 (ip), vehicle: distilled water + Tween-80 100 % of control | dose: 200.0 mg/kg/injection, schedule: Q01DX005 (ip), vehicle: distilled water + Tween-80 104 % of control

N#CC(/C=C/c1ccccc1)Nc1ccccc1O (configuration not stated)
inactive: [4] 93 % of control

CN1CCCC1CCNc1nc(-c2ccc(C(Cl)(Cl)Cl)cc2)nc(C(Cl)(Cl)Cl)n1 (configuration not stated)
inactive: [6] 95 % of control | [4] 95 % of control | [7] 95 % of control | [8] 94 % of control

O=C(CNC(=O)c1ccccc1)N/N=C/c1ccco1
inactive: [4] 94 % of control | [5] 90 % of control | [9] 95 % of control

O=C(N/N=C/c1ccccc1)c1nn[nH]n1
inactive: [6] 96 % of control | [7] 88 % of control | [8] 88 % of control

COc1ccc2[nH]c3c(c2c1)CNCC3
inactive: [10] 106 % of control | [11] 102 % of control | [12] 113 % of control

CCC(C)CNCCO (configuration not stated)
inactive: dose: 100.0 mg/kg/injection, schedule: Q04DX003 (ip), vehicle: saline 100 % of control | dose: 200.0 mg/kg/injection, schedule: Q04DX003 (ip), vehicle: saline 95 % of control

CC1CCOC(c2ccccc2)O1 (configuration not stated)
inactive: [13] 102 % of control | [1] 94 % of control | [2] 97 % of control

CC12CCC(O)CC1CCC1C2CCC2(C)C(C3=CC(=O)OC3)CCC12 (configuration not stated)
inactive: [10] 96 % of control | [11] 98 % of control | [12] 98 % of control

COC(=O)C1(C)CCCC2(C)C1CCC13OCC(CC21)C1(C(C)C)OC31 (configuration not stated)
inactive: [14] 101 % of control | [15] 100 % of control | [16] 95 % of control

C#CCCO
inactive: [17] 113 % of control | [18] 98 % of control | dose: 100.0 mg/kg/injection, schedule: Q01DX009 (ip), vehicle: saline 105 % of control

CC1=NCCCN=C(C)CC[N-]CCC[N-]CC1.[Ni+2].[O-][Cl+3]([O-])([O-])O
inactive: dose: 25.0 mg/kg/injection, schedule: Q04DX002 (ip), vehicle: saline with Tween-80 103 % of control | [13] 115 % of control | [1] 103 % of control | dose: 100.0 mg/kg/injection, schedule: Q04DX002 (ip), vehicle: saline 124 % of control

CCCCCCCCNC(C)=O
inactive: dose: 6.25 mg/kg/injection, schedule: Q01DX009 (ip), vehicle: saline with Tween-80 93 % of control | dose: 12.5 mg/kg/injection, schedule: Q01DX009 (ip), vehicle: saline with Tween-80 90 % of control | dose: 25.0 mg/kg/injection, schedule: Q01DX009 (ip), vehicle: saline with Tween-80 94 % of control

COC1=CCC(OC)=C(C)C1
inactive: [14] 93 % of control

O=C(CCCl)OCCCl
inactive: [14] 102 % of control | [15] 92 % of control

CNC(=O)ON(C(C)=O)C(=O)NC
inactive: dose: 12.5 mg/kg/injection, schedule: Q01DX009 (ip), vehicle: saline 100 % of control and 107 % of control | [17] 107 % of control and 109 % of control | [18] 114 % of control and 109 % of control

O=[N+]([O-])c1ccc2nc(CC(O)(C(F)(F)F)C(F)(F)F)ccc2c1
inactive: [4] 112 % of control | [14] 102 % of control | [5] 110 % of control | [15] 97 % of control | [9] 101 % of control | [16] 113 % of control

CN(C)N=Nc1ccc(C(F)(F)F)cc1
inactive: dose: 118.0 mg/kg/injection, schedule: Q01DX009 (ip), vehicle: Klucel (hydroxypropylcellulose) (HPC) 101 % of control | dose: 177.0 mg/kg/injection, schedule: Q01DX009 (ip), vehicle: Klucel (hydroxypropylcellulose) (HPC) 102 % of control

CCCOC(=O)NCCBr
inactive: [3] 101 % of control | [4] 96 % of control | [5] 93 % of control

Cc1cc(C)c(NS(=O)(=O)c2ccccc2)c(C)n1
inactive: [6] 103 % of control | [7] 104 % of control | [8] 104 % of control

CC(CC(C)C(=O)O)C(=O)O (configuration not stated)
inactive: [4] 100 % of control | [5] 105 % of control

C=C(C)C12CC(C)C34OC5(CCCCCCCC(C)C6C(C)C(OC(=O)c7ccccc7)C(O)(C(O)C7(COC(=O)CCCCCCCCCCCCCCC)OC7C3C1O5)C64)O2 (configuration not stated)
inactive: dose: 1.5 micrograms/kg/injection, schedule: Q01DX009 (ip), vehicle: saline 103 % of control | dose: 3.1 micrograms/kg/injection, schedule: Q01DX009 (ip), vehicle: saline 104 % of control | dose: 6.2 micrograms/kg/injection, schedule: Q01DX009 (ip), vehicle: saline 97 % of control | dose: 12.5 micrograms/kg/injection, schedule: Q01DX009 (ip), vehicle: saline 104 % of control | dose: 25.0 micrograms/kg/injection, schedule: Q01DX009 (ip), vehicle: saline 95 % of control | dose: 50.0 micrograms/kg/injection, schedule: Q01DX009 (ip), vehicle: saline 101 % of control

CCOP(=O)(C/C(=N\Nc1ccc([N+](=O)[O-])cc1[N+](=O)[O-])c1ccccc1)c1ccccc1 (configuration not stated)
inactive: [6] 90 % of control | [7] 92 % of control | [8] 97 % of control

C1COC2(CCC3(CC2)OCCO3)O1
inactive: [4] 102 % of control | dose: 100.0 mg/kg/injection, schedule: Q04DX003 (ip), vehicle: saline sonified 101 % of control | [5] 102 % of control | dose: 200.0 mg/kg/injection, schedule: Q04DX003 (ip), vehicle: saline sonified 101 % of control | [9] 103 % of control | dose: 400.0 mg/kg/injection, schedule: Q04DX003 (ip), vehicle: saline sonified 100 % of control

O=C(O)c1c2ccccc2cc2ccccc12
inactive: dose: 100.0 mg/kg/injection, schedule: Q04DX003 (ip), vehicle: Klucel (hydroxypropylcellulose) (HPC) 101 % of control | dose: 200.0 mg/kg/injection, schedule: Q04DX003 (ip), vehicle: Klucel (hydroxypropylcellulose) (HPC) 95 % of control | dose: 400.0 mg/kg/injection, schedule: Q04DX003 (ip), vehicle: Klucel (hydroxypropylcellulose) (HPC) 90 % of control

O=C1COC(=O)N1
inactive: [14] 107 % of control | [15] 94 % of control | [16] 96 % of control

COC1OC(CO)C(OC)C(OC)C1NC(C)=O (configuration not stated)
inactive: dose: 100.0 mg/kg/injection, schedule: Q01DX001 (ip), vehicle: saline + alcohol 101 % of control | dose: 200.0 mg/kg/injection, schedule: Q01DX001 (ip), vehicle: saline + alcohol 103 % of control | dose: 400.0 mg/kg/injection, schedule: Q01DX001 (ip), vehicle: saline + alcohol 97 % of control
